Reference: US20150064724A1, “BIOMARKERS FOR PROGNOSES OF PULMONARY DISEASES” (University of Pittsburgh - of the Commonwealth System of …, priority 2009, published 2015)

Test system: CD4+CD28null T cells from lung transplant recipients with BOS
Test: Inhibition of proliferation by cyclosporine A (BrdU incorporation, flow cytometry)
Format: cell-based, human
Settings: preliminary findings, n=2 subjects; compared with CD4+CD28+ cells
Experimental: Segregated CD28+ and CD28null CD4 T-cell subpopulations were individually cultured in duplicate wells coated with anti-CD3 monoclonal antibody (OKT3) (see above). Autologous nurse cells, positively selected during the initial CD4 T-cell isolations (see above) were added in a 3:1 nurse cell:CD4 T-cell ratio. In order to eliminate potential confounding by CD4dim monocytes, all CD4+ cells were depleted from the nurse cells (<<1% residual), prior to their use in cultures, by positive selection with anti-CD4-coated magnetic beads (Invitrogen, Carlsbad, Calif.). Cyclosporine (Novartis, East Hanover, N.J.) to a final concentration of 100 ng/ml was added to half the wells. Proliferation within the respective CD4 subpopulations were measured by bromodeoxyuridine (BrdU) incorporation, using reagents and methods supplied in a kit (BD Pharmingen). In brief, BrdU in a final concentration of 10 μM was added to cultures two days prior to their harvests. After 5±1 days of culture, cells were harvested from wells and stained with anti-CD4, fixed and permeabilized, and then incubated with anti-BrdU and 7-amino-actinomycin (7-AAD). The proportion of proliferating CD4+ T cells (BrdU+) among the viable cells (≧diploid DNA content) was determined by flow cytometry.

C=CC[C@@H]1/C=C(\C)C[C@H](C)C[C@H](OC)[C@H]2O[C@@](O)(C(=O)C(=O)N3CCCC[C@H]3C(=O)O[C@H](/C(C)=C/[C@@H]3CC[C@@H](O)[C@H](OC)C3)[C@H](C)[C@@H](O)CC1=O)[C@H](C)C[C@@H]2OC [tacrolimus]
resistance of CD4+CD28null T cells to the drug: relatively resistant
